Experimental data reported in patent EP0639584B1, “Preparation and screening of highly diverse peptide libraries for binding activity” (INTERPHARM LABORATORIES LTD., priority 1993, dated 1995).
Values belong to the substance of their own block, whether it stands above or below them.

Key:
[1] = target: T1, TBP1 (Homo sapiens, UniProt P19438); experiment: Binding of TBP1 to peptides on beads, ELISA with soluble substrate (pNPP, O.D. at 405 nm)
T1 construct: soluble extracellular domain of TNF receptor type 1, p55; host or cells: CHO
T1 sequence (P19438 41-201 limits assumed): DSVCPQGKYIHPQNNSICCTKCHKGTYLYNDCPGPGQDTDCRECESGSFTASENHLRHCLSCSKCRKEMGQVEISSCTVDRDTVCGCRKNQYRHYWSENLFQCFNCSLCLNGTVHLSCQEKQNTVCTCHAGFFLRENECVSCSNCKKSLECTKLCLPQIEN

[2] = test system: Immunoglobulins from other animal species and from humans; experiment: Immunostaining of library beads containing N-DSer-DLys-LVal to verify specificity, other immunoglobulins; type: binding
[3] = test system: rabbit immunoglobulins; experiment: Immunostaining of library beads containing N-DSer-DLys-LVal to verify specificity; type: binding
Description: 7. First screening of the polystyrene peptide library with TBP1. One quarter (400 µl packed) of the total number of beads were blocked with 5% FBS in PBS (1 ml for 45 minutes), to avoid nonspecific binding, and incubated with TBP1 (1 ml at a concentration of 10µg/ml in FBS/PBS for 45 minutes) followed by polyclonal rabbit anti-TBP1 (1:500 in FBS/PBS, 1 ml for 1 hour) and alkaline phosphatase conjugated goat anti-rabbit Ig antibodies (1:2000 in FBS/PBS, 1 ml for 40 minutes). The signal was generated by BCIP/NBT substrate (12 ml in 9 cm petri dish; further details as in 5 above). More than 50 stained beads were selected and three of them were subjected to sequencing. […] The BCIP/NBT substrate that we used in order to stain the beads could not be destained by any treatment that we tried (organic solvents, urea, SDS, NaOH, boiling, sonication and combinations of all of the above), and we therefore decided to use another alkaline phosphatase substrate which could be readily destained. […]

[4] = test system: Monoclonal antibody to human β-endorphin; experiment: Staining of beads with anti-endorphin McAb clone 3-E7 (alkaline phosphatase/BCIP); type: binding, mouse; details: antibody 200 ng/ml, BCIP 2 hours
Description: Staining of the beads was performed using the following steps (all incubation steps were performed with continuous mixing of the beads): • a. Washes of the beads with wash buffer. • b. Incubation of the beads with blocking buffer for 45 minutes to block non-specific interactions. • c. Incubation of the beads with the monoclonal antibody to human β-endorphin diluted to 200 ng/ml in blocking buffer for 40 minutes. • d. Six washes with wash buffer. • e. Incubation of the beads with the polyclonal rabbit antibodies against mouse IgG conjugated with alkaline phosphatase, diluted 1:1000 in blocking buffer for 40 minutes. • f. Six washes with wash buffer and one wash with Tris (25mM), NaC1 (125 mM), Tween (0.1%). • g. Incubation of the beads with BCIP diluted to 500 ug/ml in 0.1M Tris pH 9.0, for 2 hours. • h. Two washes with H2O, transfer of the beads to petri dishes and observation for blue stained beads (using a stereomicroscope).

OD ([1]; relative to background, peptide on around 100,000 beads, soluble substrate): ten times higher than background
OD in presence of the TBP1 ([1]; relative to the antibodies only): four times higher
response with antibodies alone ([1]; without TBP1): lack of response
Substance: N-DAla-DGlu-LMet

Substance: N-DSer-DLys-LVal
recognition of immunoglobulins from other animal species and from humans [2]: not recognized
recognition of rabbit immunoglobulins ([3]; from both rabbit anti-TBP1 antiserum and normal rabbit serum): specifically recognized
Immunostaining performed with and without TBP1 ([3]; surface staining): specificity to the antibodies

Number of Blue-stained Beads [4]: none of the beads
Substance: n-His-Pro-Tyr-Pro-Pro (HPYPP; on TentaGel beads; printed: His-Pro-Tyr-Pro-Pro) [Model HPYPP]

Substance: n-Tyr-Gly-Gly-Phe-Leu [Model YGGFL]
Number of Blue-stained Beads [4]: most of the beads
